In US11435363B2, “Relevance of achieved levels of markers of systemic inflammation following treatment” (The Brigham and Women's Hospital, Inc., priority 2004, dated 2022):

How the values were obtained:
CRP = settings: for median CRP level at day 30 / median CRP level at end of study: atorvastatin 80 mg/day or pravastatin 40 mg/day orally; for median CRP level at day 30 / median CRP level at end of study / proportion of treated patients who achieved CRP levels below 2.0 at day 30: P<0.001; for median CRP level at end of study: end of study (mean 24 months); for proportion of treated patients who achieved CRP levels below 2.0 at day 30: atorvastatin 80 mg or pravastatin 40 mg
Excerpt: (§1) In total, 4,162 patients who had been hospitalized within the preceding 10 days for acute coronary syndrome and provided written informed consent were enrolled at 349 sites in eight countries. Approximately two-thirds had acute myocardial infarction and the remainder had high-risk unstable angina.
(§2) For this analysis, we defined achieved LDLC and achieved CRP levels as those values obtained at the 30 day follow-up, a period of time adequate for the effect of statin therapy to be seen for both LDLC and CRP and a time when any residual effects of ischemia on each parameter would no longer be evident. Of the total cohort, 3,745 participants (90.0 percent) were alive and free of a recurrent event at day 30 and underwent evaluation for both LDLC and CRP at that time. All laboratory measurements were made in core facilities and a validated assay for high sensitivity CRP used (Denka Seiken).
(§3) Spearman correlation coefficients were used to evaluate the relationship between achieved LDLC and achieved CRP. We then used a multi-stage process to address the impact of achieved LDLC and achieved CRP levels on rates of recurrent myocardial infarction or fatal coronary events that occurred after day 30 in the study. First, we divided the study population into increasing quartiles of achieved LDLC and achieved CRP and sought evidence that these levels were associated with increased risk of recurrent myocardial infarction or coronary death, both in age-adjusted analyses and after further adjustment for gender, smoking status (current/non-smoker), diabetes, body mass index (kg/m^2), and history of hypertension. […] To address the relative impact of achieved CRP across LDLC strata, we repeated this process after dividing the study cohort into four groups on the basis of achieved LDLC levels and achieved CRP levels above or below the respective values of 70 mg/dL and 2.0 mg/L. A test for trend across groups was performed assigning a score of 0 to those with low levels of both, a score of 1 to the two intermediate groups, and a score of 2 to those with high levels of both. Similar analyses were performed after stratification of the study group according to atorvastatin or pravastatin allocation. Estimates of hazard ratios were obtained using Cox proportional-hazards models.

LDLC = test: PROVE IT-TIMI 22: LDLC levels on statin therapy; format: in vivo, human; settings: for proportion of allocated patients who achieved an LDLC goal of <70 mg/dL: day 30, atorvastatin 80 mg or pravastatin 40 mg, P<0.001
Excerpt: as §1, §2
Spearman correlation coefficients were used to evaluate the relationship between achieved LDLC and achieved CRP. We then used a multi-stage process to address the impact of achieved LDLC and achieved CRP levels on rates of recurrent myocardial infarction or fatal coronary events that occurred after day 30 in the study. First, we divided the study population into increasing quartiles of achieved LDLC and achieved CRP and sought evidence that these levels were associated with increased risk of recurrent myocardial infarction or coronary death, both in age-adjusted analyses and after further adjustment for gender, smoking status (current/non-smoker), diabetes, body mass index (kg/m^2), and history of hypertension. […] To address the relative impact of achieved CRP across LDLC strata, we repeated this process after dividing the study cohort into four groups on the basis of achieved LDLC levels and achieved CRP levels above or below the respective values of 70 mg/dL and 2.0 mg/L. A test for trend across groups was performed assigning a score of 0 to those with low levels of both, a score of 1 to the two intermediate groups, and a score of 2 to those with high levels of both. […]

[1] = system: acute coronary syndrome patients; settings: overall trial result, reference (7); cited from earlier work
[2] = system: acute coronary syndrome patients; test: PROVE IT-TIMI 22: recurrent myocardial infarction or coronary death after day 30; format: in vivo, human; settings: for recurrent event rate, achieved LDLC <70 mg/dL and achieved CRP greater than 2.0 mg/L / recurrent event rate, achieved LDLC <70 mg/dL and achieved CRP less than 2.0 mg/L: recurrent myocardial infarction or coronary death, P for difference between agents=0.7
Excerpt: as §1, §2, §3

| SMILES | median CRP level at day 30 (CRP) [mg/L] | median CRP level at end of study (CRP) [mg/1] | proportion of treated patients who achieved CRP levels below 2.0 at day 30 (CRP) [%] | LDLC levels compared with the pravastatin group (LDLC; day 30, 4 months and end of study, identical at randomization) | proportion of allocated patients who achieved an LDLC goal of <70 mg/dL (LDLC) [%] | overall clinical outcome in the PROVE IT-TIMI 22 trial [1] | fully adjusted hazard ratio for atorvastatin vs pravastatin, clinical outcomes ([2]; after accounting for achieved LDLC and achieved CRP, 95% CI 0.75 to 1.34, P=0.9) | recurrent event rate, achieved LDLC <70 mg/dL and achieved CRP greater than 2.0 mg/L [2] [per 100 person-years] | recurrent event rate, achieved LDLC <70 mg/dL and achieved CRP less than 2.0 mg/L [2] [per 100 person-years] | effect on CRP levels (CRP; gatifloxicin versus placebo allocation in this population) |
| --- | --- | --- | --- | --- | --- | --- | --- | --- | --- | --- |
| CC(C)c1c(C(=O)Nc2ccccc2)c(-c2ccccc2)c(-c2ccc(F)cc2)n1CC[C@@H](O)C[C@@H](O)CC(=O)O [atorvastatin] | 1.6 | 1.3 | 57.5 | significantly lower | 72.3 | superior to pravastatin overall | 1.00 | 3.1 | 2.3 |  |
| CC[C@H](C)C(=O)O[C@H]1C[C@H](O)C=C2C=C[C@H](C)[C@H](CC[C@@H](O)C[C@@H](O)CC(=O)O)[C@H]21 [pravastatin] | 2.3 | 2.1 | 44.9 |  | 21.7 |  |  | 3.4 | 2.5 |  |
| COc1c(N2CCNC(C)C2)c(F)cc2c(=O)c(C(=O)O)cn(C3CC3)c12 (stereo not shown) [gatifloxicin] |  |  |  |  |  |  |  |  |  | no significant effect on CRP levels |
